According to patent US20030198617A1, “Pharmaceutical tryptophan containing dipeptide compositions and methods of use thereof” (priority 1993, published 2003):
Where two headings read alike, the source gives them in different places. Marks after values point to notes of the source that are not given here.

What was measured:
Staphylococci = assay: Antibiotic-sensitivity of staphylococci from skin lesions (MIC, series cultivation); assay type: cell-based
From the text: Staphylococci extracted from dermal lesions were initially sensitive to 10 of the 15 antibiotics being assayed (Table 25).

[1] = system: methicillin-resistant Staphylococcal aureus; settings: 5 test animals
[2] = system: Mycobacterium tuberculosis; settings: in vivo
[3] = staphylococci from patients After IM862
[4] = staphylococci from patients Before IM862

Row | Molecule | MIC g/ml (Staphylococci; [3]) | MIC g/ml (Staphylococci; [4]) | also measured
1 | Cc1onc(-c2ccccc2)c1C(=O)N[C@@H]1C(=O)N2[C@@H]1SC(C)(C)[C@@H]2C(=O)O [Oxycillin] | 1.56 ± 0.45^yy g/ml | 5.11 ± 0.63^x g/ml | 
2 | Gentamycin | 1.32 ± 0.49^yy g/ml | 5.47 ± 0.92^x g/ml | 
3 | [H]/N=C(/N)N[C@H]1[C@H](O)[C@@H](O)[C@H](O[C@@H]2O[C@@H](C)[C@](O)(C=O)[C@H]2O[C@@H]2O[C@@H](CO)[C@H](O)[C@@H](O)[C@@H]2NC)[C@@H](N/C(N)=N\[H])[C@@H]1O [Streptomycin] | 3.39 ± 0.66^yy g/ml | 6.71 ± 0.59^x g/ml | 
4 | NC[C@H]1O[C@H](O[C@H]2[C@H](O)[C@@H](O[C@H]3O[C@H](CO)[C@@H](O)[C@H](N)[C@H]3O)[C@H](N)C[C@@H]2N)[C@H](O)[C@@H](O)[C@@H]1O [Kanamycin] | 2.09 ± 0.54^yy g/ml | 6.32 ± 0.58^x g/ml | 
5 | Cc1nnc(SCC2=C(C(=O)O)N3C(=O)[C@@H](NC(=O)Cn4cnnn4)[C@H]3SC2)s1 [Cefamezin] | 1.33 ± 0.53^yy g/ml |  | 
6 | Cc1nnc(SCC2=C(C(=O)O)N3C(=O)[C@@H](NC(=O)Cn4cnnn4)[C@H]3SC2)s1 [Kefzol] | 1.86 ± 0.93^y g/ml |  | 
7 | O=C(N[C@H](CO)[C@H](O)c1ccc([N+](=O)[O-])cc1)C(Cl)Cl [Levomicetin] | 4.58 ± 0.67^yy g/ml | 9.17 ± 0.36^x g/ml | 
8 | CC(=O)OCC1=C(C(=O)O)N2C(=O)[C@@H](NC(=O)Cc3cccs3)[C@H]2SC1 [Keflin] | 1. ± 0.69^y g/ml |  | 
9 | CC1(C)S[C@@H]2[C@H](NC(=O)[C@H](N)c3ccccc3)C(=O)N2[C@H]1C(=O)O [Ampicillin, reference compound] | 2.64 ± 0.60^yy g/ml | 8.10 ± 0.49^x g/ml | Survivors ([1]; 100 mg/kg Ampicillin, pre-treated with normal saline i.p.): no survivors; Percent ip Survivors ([1]; Group 1: IM862 control (0) pretreatment, ampicillin 100 mg/kg 1 hr after inoculation, 72 hours): 0%; Survivors ([1]; Group 1: IM862 control (0) pretreatment, ampicillin 100 mg/kg 1 hr after inoculation, survivors at 72 hours): 0
10 | Penicillin | 2.52 ± 0.70^yy g/ml | 9.45 ± 0.28^x g/ml | 
11 | c1ccc([C@H]2CN3CCSC3=N2)cc1 [decaris, reference compound] |  |  | disintegration cavities closed, number of patients [2]: 10 patients; improvement, number of patients [2]: 18; no improvement, number of patients [2]: 3 patients; significant improvement, number of patients [2]: only one case
